Assay results as given in patent publication US20260130395A1, “Water Dispersible Botanical Compositions” (Aquila Black Limited, priority 2021, published 2026).

Assays:
[1] = Stability of cannabinoid entourage and Vitamin E components of the powder concentrate by LCMSMS; assay type: physicochemical; details: powder stored at 21-25° C.
Method: At each time period, 0.05 g of powder was dissolved in 10 ml-15 of ethanol, diluted to fall within the analytical range, and injected into the LCMSMS for analysis.

[2] = Stability of cannabinoid compounds and Vitamin E components in Beverage 2 (AB Red) by LCMSMS; assay type: physicochemical; details: stored at 8° C.

C=C(C)[C@@H]1CCC(C)=C[C@H]1c1c(O)cc(CCCCC)c(C(=O)O)c1O [CBDA, cannabidiolic acid]
Stability of Plant-Derived Cannabinoid Compounds in Powder Concentrate ([1]; 0 days): 0.410 mg/g powder | Stability of Plant-Derived Cannabinoid Compounds in Powder Concentrate ([1]; 1 days): 0.412 mg/g powder | Stability of Plant-Derived Cannabinoid Compounds in Powder Concentrate ([1]; 2 days): 0.407 mg/g powder | Stability of Plant-Derived Cannabinoid Compounds in Powder Concentrate ([1]; 3 days): 0.406 mg/g powder | Stability of Plant-Derived Cannabinoid Compounds in Powder Concentrate ([1]; 5 days): 0.414 mg/g powder | Stability of Plant-Derived Cannabinoid Compounds in Powder Concentrate ([1]; 8 days): 0.415 mg/g powder | Stability of Plant-Derived Cannabinoid Compounds in Powder Concentrate ([1]; 9 days): 0.410 mg/g powder | Stability of Plant-Derived Cannabinoid Compounds in Powder Concentrate ([1]; 10 days): 0.418 mg/g powder | Stability of Plant-Derived Cannabinoid Compounds in Powder Concentrate ([1]; 11 days): 0.415 mg/g powder | Stability of Plant-Derived Cannabinoid Compounds in Powder Concentrate ([1]; 12 days): 0.396 mg/g powder | Stability of Plant-Derived Cannabinoid Compounds in Powder Concentrate ([1]; 15 days): 0.399 mg/g powder | Stability of Plant-Derived Cannabinoid Compounds in Powder Concentrate ([1]; 16 days): 0.427 mg/g powder | Stability of Plant-Derived Cannabinoid Compounds in Powder Concentrate ([1]; 17 days): 0.421 mg/g powder | Stability of Plant-Derived Cannabinoid Compounds in Powder Concentrate ([1]; 18 days): 0.418 mg/g powder | Stability of Plant-Derived Cannabinoid Compounds in Powder Concentrate ([1]; 19 days): 0.414 mg/g powder | Stability of Plant-Derived Cannabinoid Compounds in Powder Concentrate ([1]; 22 days): 0.419 mg/g powder | Stability of Plant-Derived Cannabinoid Compounds in Powder Concentrate ([1]; 23 days): 0.396 mg/g powder | Stability of Plant-Derived Cannabinoid Compounds in Powder Concentrate ([1]; 24 days): 0.403 mg/g powder | Stability of Plant-Derived Cannabinoid Compounds in Powder Concentrate ([1]; 25 days): 0.401 mg/g powder | Stability of Plant-Derived Cannabinoid Compounds in Powder Concentrate ([1]; 26 days): 0.397 mg/g powder | Stability of Plant-Derived Cannabinoid Compounds in Powder Concentrate ([1]; 29 days): 0.426 mg/g powder | Stability of Plant-Derived Cannabinoid Compounds in Powder Concentrate ([1]; 30 days): 0.405 mg/g powder | Stability of Plant-Derived Cannabinoid Compounds in Powder Concentrate ([1]; 60 days): 0.418 mg/g powder | Stability of Plant-Derived Cannabinoid Compounds in Powder Concentrate ([1]; 90 days): 0.413 mg/g powder | Stability of Plant-Derived Cannabinoid Compounds in Powder Concentrate ([1]; 120 days): 0.403 mg/g powder | Stability of Plant-Derived Cannabinoid Compounds in Powder Concentrate ([1]; 150 days): 0.412 mg/g powder | Stability of Plant-Derived Cannabinoid Compounds in Powder Concentrate ([1]; 180 days): 0.422 mg/g powder | Stability of Plant-Derived Cannabinoid Compounds in Powder Concentrate ([1]; 210 days): 0.427 mg/g powder | Stability of Plant-Derived Cannabinoid Compounds in Powder Concentrate ([1]; 240 days): 0.417 mg/g powder | Stability of Plant-Derived Cannabinoid Compounds in Powder Concentrate ([1]; 270 days): 0.424 mg/g powder | Stability of Plant-Derived Cannabinoid Compounds in Powder Concentrate ([1]; 300 days): 0.409 mg/g powder | Stability of Plant-Derived Cannabinoid Compounds in Powder Concentrate ([1]; 330 days): 0.424 mg/g powder | Stability of Plant-Derived Cannabinoid Compounds in Powder Concentrate ([1]; 360 days): 0.413 mg/g powder | Stability of Plant-Derived Cannabinoid Compounds in Powder Concentrate ([1]; 390 days): 0.407 mg/g powder | Stability of Plant-Derived Cannabinoid Compounds in Powder Concentrate ([1]; 420 days): 0.420 mg/g powder | Stability of Plant-Derived Cannabinoid Compounds in Powder Concentrate ([1]; 450 days): 0.398 mg/g powder | Stability of Plant-Derived Cannabinoid Compounds in Powder Concentrate ([1]; 480 days): 0.418 mg/g powder | Stability of Plant-Derived Cannabinoid Compounds in Powder Concentrate ([1]; 510 days): 0.411 mg/g powder | Stability of Plant-Derived Cannabinoid Compounds in Powder Concentrate ([1]; 540 days): 0.425 mg/g powder | Stability of Plant-Derived Cannabinoid Compounds in Powder Concentrate ([1]; 570 days): 0.408 mg/g powder | Stability of Plant-Derived Cannabinoid Compounds in AB Red ([2]; 0 days): 1.68 µg/mL | Stability of Plant-Derived Cannabinoid Compounds in AB Red ([2]; 1 days): 1.69 µg/mL | Stability of Plant-Derived Cannabinoid Compounds in AB Red ([2]; 2 days): 1.66 µg/mL | Stability of Plant-Derived Cannabinoid Compounds in AB Red ([2]; 3 days): 1.64 µg/mL | Stability of Plant-Derived Cannabinoid Compounds in AB Red ([2]; 5 days): 1.67 µg/mL | Stability of Plant-Derived Cannabinoid Compounds in AB Red ([2]; 8 days): 1.68 µg/mL | Stability of Plant-Derived Cannabinoid Compounds in AB Red ([2]; 9 days): 1.65 µg/mL | Stability of Plant-Derived Cannabinoid Compounds in AB Red ([2]; 10 days): 1.67 µg/mL | Stability of Plant-Derived Cannabinoid Compounds in AB Red ([2]; 11 days): 1.65 µg/mL | Stability of Plant-Derived Cannabinoid Compounds in AB Red ([2]; 12 days): 1.68 µg/mL | Stability of Plant-Derived Cannabinoid Compounds in AB Red ([2]; 15 days): 1.67 µg/mL | Stability of Plant-Derived Cannabinoid Compounds in AB Red ([2]; 16 days): 1.69 µg/mL | Stability of Plant-Derived Cannabinoid Compounds in AB Red ([2]; 17 days): 1.64 µg/mL | Stability of Plant-Derived Cannabinoid Compounds in AB Red ([2]; 18 days): 1.65 µg/mL | Stability of Plant-Derived Cannabinoid Compounds in AB Red ([2]; 19 days): 1.68 µg/mL | Stability of Plant-Derived Cannabinoid Compounds in AB Red ([2]; 22 days): 1.70 µg/mL | Stability of Plant-Derived Cannabinoid Compounds in AB Red ([2]; 23 days): 1.63 µg/mL | Stability of Plant-Derived Cannabinoid Compounds in AB Red ([2]; 24 days): 1.70 µg/mL | Stability of Plant-Derived Cannabinoid Compounds in AB Red ([2]; 25 days): 1.63 µg/mL | Stability of Plant-Derived Cannabinoid Compounds in AB Red ([2]; 26 days): 1.63 µg/mL
